This passage reports IC50 and CC50 results from ChEMBL document CHEMBL1201862, “PubChem BioAssay data set” (2004).

The target of test [1] is T1, Exodeoxyribonuclease V (Escherichia coli (strain K12), UniProt P04993+P07648+P08394).
T1 sequence (P04993 whole entry): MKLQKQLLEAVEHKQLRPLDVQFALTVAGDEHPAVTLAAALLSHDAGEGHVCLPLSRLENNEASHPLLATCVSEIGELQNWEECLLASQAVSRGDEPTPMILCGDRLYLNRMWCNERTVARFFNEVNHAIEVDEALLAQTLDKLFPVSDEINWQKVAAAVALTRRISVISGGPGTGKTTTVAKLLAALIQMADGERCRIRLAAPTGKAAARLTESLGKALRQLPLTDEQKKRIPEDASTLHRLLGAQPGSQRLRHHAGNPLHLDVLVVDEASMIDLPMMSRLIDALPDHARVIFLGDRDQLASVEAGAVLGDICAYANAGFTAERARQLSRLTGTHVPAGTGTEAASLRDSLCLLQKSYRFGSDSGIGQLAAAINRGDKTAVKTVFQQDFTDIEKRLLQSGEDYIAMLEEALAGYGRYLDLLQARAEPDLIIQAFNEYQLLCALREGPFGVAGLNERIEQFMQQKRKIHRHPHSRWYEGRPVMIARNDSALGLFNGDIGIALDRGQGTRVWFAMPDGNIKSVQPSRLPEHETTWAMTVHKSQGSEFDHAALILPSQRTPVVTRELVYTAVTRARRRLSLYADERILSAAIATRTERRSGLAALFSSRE
T1 sequence (P07648 whole entry): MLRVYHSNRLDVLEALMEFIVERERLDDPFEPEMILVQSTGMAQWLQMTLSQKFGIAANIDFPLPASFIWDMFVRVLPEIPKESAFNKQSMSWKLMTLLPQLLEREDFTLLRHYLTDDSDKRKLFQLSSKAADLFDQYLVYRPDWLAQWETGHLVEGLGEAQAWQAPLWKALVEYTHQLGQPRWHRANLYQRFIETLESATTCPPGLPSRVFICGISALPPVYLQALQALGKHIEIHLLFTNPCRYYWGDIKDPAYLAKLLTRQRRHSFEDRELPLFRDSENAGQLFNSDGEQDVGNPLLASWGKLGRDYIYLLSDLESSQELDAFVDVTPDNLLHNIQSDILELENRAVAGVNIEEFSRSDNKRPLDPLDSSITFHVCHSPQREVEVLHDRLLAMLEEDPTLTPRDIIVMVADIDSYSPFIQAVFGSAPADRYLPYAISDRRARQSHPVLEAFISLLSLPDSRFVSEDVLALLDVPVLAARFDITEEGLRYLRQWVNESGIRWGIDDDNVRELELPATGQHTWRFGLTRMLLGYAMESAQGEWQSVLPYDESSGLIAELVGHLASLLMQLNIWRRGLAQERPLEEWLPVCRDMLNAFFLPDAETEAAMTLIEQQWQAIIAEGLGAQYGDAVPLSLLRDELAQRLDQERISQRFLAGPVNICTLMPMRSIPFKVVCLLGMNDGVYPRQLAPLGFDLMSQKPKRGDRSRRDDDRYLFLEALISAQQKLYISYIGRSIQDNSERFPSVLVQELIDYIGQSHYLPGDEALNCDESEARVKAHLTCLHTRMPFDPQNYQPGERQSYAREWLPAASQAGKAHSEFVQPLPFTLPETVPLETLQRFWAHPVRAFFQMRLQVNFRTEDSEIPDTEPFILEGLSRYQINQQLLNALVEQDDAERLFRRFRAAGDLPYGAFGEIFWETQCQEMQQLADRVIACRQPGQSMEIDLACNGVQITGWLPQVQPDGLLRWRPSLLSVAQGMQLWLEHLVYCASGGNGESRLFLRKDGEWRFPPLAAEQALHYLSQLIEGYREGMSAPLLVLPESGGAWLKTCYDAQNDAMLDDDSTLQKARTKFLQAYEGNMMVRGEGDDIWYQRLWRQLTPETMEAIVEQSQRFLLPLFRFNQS
T1 sequence (P08394 whole entry): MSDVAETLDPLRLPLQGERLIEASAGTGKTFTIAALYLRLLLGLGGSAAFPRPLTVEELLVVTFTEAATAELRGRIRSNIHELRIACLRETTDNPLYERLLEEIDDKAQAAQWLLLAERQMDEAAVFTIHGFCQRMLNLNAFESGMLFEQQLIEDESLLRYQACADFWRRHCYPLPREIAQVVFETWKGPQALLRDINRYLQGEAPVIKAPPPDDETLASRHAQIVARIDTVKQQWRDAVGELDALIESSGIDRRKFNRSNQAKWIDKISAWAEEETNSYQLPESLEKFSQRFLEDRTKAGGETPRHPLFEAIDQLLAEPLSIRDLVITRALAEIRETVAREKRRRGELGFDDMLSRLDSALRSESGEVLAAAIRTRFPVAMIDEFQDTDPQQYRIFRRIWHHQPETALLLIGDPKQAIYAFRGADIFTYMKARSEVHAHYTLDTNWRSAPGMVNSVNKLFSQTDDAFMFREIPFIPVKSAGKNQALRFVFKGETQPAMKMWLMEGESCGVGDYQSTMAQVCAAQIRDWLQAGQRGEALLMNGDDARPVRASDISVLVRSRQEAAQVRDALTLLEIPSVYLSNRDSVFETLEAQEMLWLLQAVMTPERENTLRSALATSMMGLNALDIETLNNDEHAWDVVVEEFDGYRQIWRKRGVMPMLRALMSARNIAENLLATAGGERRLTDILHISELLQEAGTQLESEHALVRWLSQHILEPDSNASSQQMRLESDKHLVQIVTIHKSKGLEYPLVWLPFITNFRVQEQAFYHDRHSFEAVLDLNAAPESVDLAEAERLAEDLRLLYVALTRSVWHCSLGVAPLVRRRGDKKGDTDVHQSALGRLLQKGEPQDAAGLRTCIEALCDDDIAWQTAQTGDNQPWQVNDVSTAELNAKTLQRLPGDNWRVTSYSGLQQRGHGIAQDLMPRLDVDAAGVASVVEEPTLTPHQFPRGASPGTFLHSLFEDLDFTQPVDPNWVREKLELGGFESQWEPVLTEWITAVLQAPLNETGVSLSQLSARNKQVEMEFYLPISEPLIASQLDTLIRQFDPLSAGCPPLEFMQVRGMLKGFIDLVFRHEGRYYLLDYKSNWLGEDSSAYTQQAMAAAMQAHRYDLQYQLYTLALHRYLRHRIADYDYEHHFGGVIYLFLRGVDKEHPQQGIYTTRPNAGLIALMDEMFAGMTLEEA
Description: RecBCD inhibition via phage-restricted bacterial growth – absorbance, V66 E. coli, mutant T4 phage, counter-screen for AddAB inhibitor project, dose response (AID 492957). It counts as functional, cell-based, Escherichia coli str. K-12 substr. MG1655. In general terms: A counterscreen serves to expose hits that act by an unwanted route or on another target.

Test [2] in a line: viability loss in HeLa cells – cytotoxicity control for MgcRacGAP inhibitor project, dose response (AID 624300). It counts as functional.
A short description of test [3]: IC50 of Artemis nuclease activity blockers – biochemical, fluorescence intensity, dose response (AID 720701).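 Note: Artemis endonuclease enzyme.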 Format: functional.

Molecules are shown by their SMILES. Calls of active or inactive are those of the source. Where only a bound is given, the exact number is not on record here.

Regarding `O=[N+]([O-])c1ccc(N/N=C/c2ccc[nH]2)cc1`, the IC50 (commonly the concentration needed to halve the response being measured) in test [1] was > 119 µM (inactive). For the same molecule, the cytotoxic concentration (CC50) (usually the concentration giving 50% cytotoxicity) in test [2] was 100 µM (active).
In the case of `CC(=O)N(/N=C1\Sc2ccccc2C1=O)c1cccc(C)c1`, the IC50 in test [3] is 18.3 µM (active).
